Measurements from publication PMC12524617, “Recombinant Production and Characterization of a Novel α-L-Fucosidase from Bifidobacterium castoris” (International Journal of Molecular Sciences, 2025).

Biological target: T1, commercial T. maritima α-L-fucosidase (Thermotoga maritima, UniProt Q9WYE2)
T1 construct: gene TM_0306; commercial enzyme from Megazyme
T1 sequence (Q9WYE2 1-449): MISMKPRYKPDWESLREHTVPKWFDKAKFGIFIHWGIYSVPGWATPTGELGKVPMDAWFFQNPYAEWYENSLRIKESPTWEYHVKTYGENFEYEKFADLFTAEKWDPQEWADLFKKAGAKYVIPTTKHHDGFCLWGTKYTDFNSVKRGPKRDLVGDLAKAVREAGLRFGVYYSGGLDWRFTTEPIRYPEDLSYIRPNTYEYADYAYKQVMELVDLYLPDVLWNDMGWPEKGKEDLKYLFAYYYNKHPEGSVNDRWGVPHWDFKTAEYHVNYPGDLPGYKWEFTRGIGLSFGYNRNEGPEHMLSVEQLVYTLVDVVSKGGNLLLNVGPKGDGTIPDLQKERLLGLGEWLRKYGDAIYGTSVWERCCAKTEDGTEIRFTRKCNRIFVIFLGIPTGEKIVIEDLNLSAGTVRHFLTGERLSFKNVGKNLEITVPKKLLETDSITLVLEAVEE
Assay: p-nitrophenolate release, absorbance at […] nm
Format: biochemical
Details: positive control enzyme, 1 μg, same conditions, pH 3.0-8.0, 24-42 °C; activity only in figure

Question: How did the “p-nitrophenolate release, absorbance at 405 nm” value turn out when `C[C@@H]1O[C@@H](Oc2ccc([N+](=O)[O-])cc2)[C@@H](O)[C@H](O)[C@@H]1O` [pNP-Fuc, 4-Nitrophenyl-α-L-fucopyranoside] was run?
Answer: -derived α-L-fucosidase was used as a positive control under the same conditions
